Reference: patent US20250090510A1, “eIF4G1-eIF1 INHIBITORS AND USE THEREOF” (YEDA RESEARCH AND DEVELOPMENT CO. LTD., priority 2022, published 2025)

Key:
[1] = system: leaky scanning from cap-proximal AUG in HEK293T cells; assay: Leaky scanning GFP reporter with cap-proximal upstream AUG, western blot; format: cell-based, human; settings: upstream AUG with 16 nt 5′UTR
Text: FIGS. 1A-G: Identification and initial characterization of eIF1-eIF4G1 inhibitors using a high-throughput drug screen (HTS). (1A) A flowchart describing the steps of the recombinant eIF1-eIF4G1 split-RL HTS. (1B) Selection of drugs that inhibit leaky scanning. HEK293T cells were transfected with a short 5′UTR bearing GFP reporter gene described on the top, treated with the indicated HTS hits, and then analyzed by western blot with GFP antibody. US and DS denote upstream and downstream AUG initiation sites, respectively. (1C) A graph showing the change in the ratio of the upstream and downstream AUG following treatment with the indicated drugs. (1D) The chemical structure of the eIF1-eIF4G1 inhibitors, i14G1-10 and i14G1-12. (1E) His-tagged eIF4G1 and His-tagged eIF1 were expressed in BL21 bacteria and purified using nickel NTA beads. Purified His-tagged eIF4G1 and His-tagged eIF1 were incubated with the indicated doses of either i14G1-10 (0-256 μM) or i14G1-12 (0-256 μM) for 5 minutes, followed by fluorescence measurement. For eIF4G1 excitation was at 280 nm and emission was at 350 nm. For eIF1 excitation was at 274 nm and emission was at 304 nm. The data shown represent three independent replicates. IC50 was calculated using Graphpad prism 9. (1F-1G) Western blots of GST pull down. […]
To address the functional significance of the temporal eIF1-eIF4G1 interaction, the inventors set out to develop pharmacological tools against this complex. To this end, the split-Renilla luciferase (RL) complementation assay previously found to be an efficient readout of eIF1 and eIF4G1 interaction in mammalian cells and a highly sensitive and powerful approach for the identification of protein-protein inhibitors was used. […] As knockdown of either eIF1 or eIF4G1 and interference with eIF1-eIF4G1 interaction led to the arrest of leaky scanning from cap-proximal AUG, the selected compounds were analyzed for their effect on initiation from cap-proximal AUG. […]

eIF1-eIF4G1 complex = target: T1, eIF1-eIF4G1 complex (Homo sapiens, UniProt Q04637); assay: Co-immunoprecipitation of endogenous eIF4G1 with HA-eIF1; format: cell-based; settings: ER stress, Thapsigargin 1 μM, 1 hour
T1 construct: co-immunoprecipitation of endogenous eIF4G1 in HEK293T cells expressing HA-eIF1 or HA-eIF4E was performed; endogenous in cells; host or cells: HEK293T (eIF4G1 endogenous; HA-eIF1 transfected)
Procedure: (§1) FIGS. 2A-C: The effect of i14G1-10 and i14G1-12 on eIF1-eIF4G1 and eIF4E-eIF4G1 complexes. (2A-B) HA-eIF1 and HA-eIF4E were each transfected into HEK293T cells and 48 h after transfection cells were treated with DMSO or i14G1-10 (2A) or i14G1-12 (2B) for 4 h, followed by immunoprecipitation of HA-eIF1 or HA-eIF4E using anti-HA-agarose beads. Western blot was run to check co-immunoprecipitation of endogenous eIF4G1 with HA-eIF1 or HA-eIF4E. The graphs represent the co-immunoprecipitation of eIF4G1 with HA-eIF1 (right) or HA-eIF4E (left). Co—IP data shown as mean±SEM of 4-7 independent experiments. The asterisks denote statistically significant difference compared to DMSO, according to Student's t-tests (one-tailed, paired). *p<0.05. (2C) HEK293T cells were treated with DMSO, i14G1-10, or i14G1-12 for 4 h, followed by cell lysis. Respective cell lysates were incubated with cap analog (γ-Aminohexyl-m7GTP) beads for 2 h to precipitate bound eIF4E. Western blot was performed to check co-precipitation of eIF4G1 along with eIF4E on the cap-analog beads. The graph represents the binding fraction of eIF4G1 and eIF4E to the cap-analog beads (mean±SEM) with DMSO (black), i14G1-10 (blue), and i14G1-12 (red), n=6. The asterisks denote statistically significant difference compared to DMSO, according to Student's t-tests (one-tailed, paired). *p<0.05; **p<0.01.
(§2) Co-immunoprecipitation. HEK293T cells were transfected with 5 μg of HA-eIF1 or HA-eIF4E plasmids along with 10 ng GFP plasmid to check for transfection efficiency using Jetprime reagent as per manufacturer's protocol. After 48 h, HA-eIF1 and HA-eIF4E expressing HEK293T cells were incubated with DMSO, i14G1-10 (20 μM), and […] (10 μM). 4 h later, cells were lysed using IP buffer (20 mM Tris pH8, 125 mM NaCl, 10% glycerol, 50 mM NaF, 1 mM […], 0.5% NP-40, and 0.2 mM EDTA) supplemented with fresh protease inhibitor cocktail (1:100) and PMSF 200 μM (1:100). Protein extract was taken for immunoprecipitation using either monoclonal anti-HA-agarose antibody (Sigma) or control IgG antibody in IP buffer, at 4° C. for 2 hours. […]

eIF4E-eIF4G1 complex = target: T2, eIF4E-eIF4G1 complex (Homo sapiens, UniProt Q04637); assay: Co-immunoprecipitation of endogenous eIF4G1 with HA-eIF4E; format: cell-based; settings: ER stress, Thapsigargin 1 μM, 1 hour
T2 construct: co-immunoprecipitation of endogenous eIF4G1 in HEK293T cells expressing HA-eIF1 or HA-eIF4E was performed; endogenous in cells; host or cells: HEK293T (eIF4G1 endogenous; HA-eIF4E transfected)
Procedure: as §1, §2

T2 sequence (Q04637 whole entry): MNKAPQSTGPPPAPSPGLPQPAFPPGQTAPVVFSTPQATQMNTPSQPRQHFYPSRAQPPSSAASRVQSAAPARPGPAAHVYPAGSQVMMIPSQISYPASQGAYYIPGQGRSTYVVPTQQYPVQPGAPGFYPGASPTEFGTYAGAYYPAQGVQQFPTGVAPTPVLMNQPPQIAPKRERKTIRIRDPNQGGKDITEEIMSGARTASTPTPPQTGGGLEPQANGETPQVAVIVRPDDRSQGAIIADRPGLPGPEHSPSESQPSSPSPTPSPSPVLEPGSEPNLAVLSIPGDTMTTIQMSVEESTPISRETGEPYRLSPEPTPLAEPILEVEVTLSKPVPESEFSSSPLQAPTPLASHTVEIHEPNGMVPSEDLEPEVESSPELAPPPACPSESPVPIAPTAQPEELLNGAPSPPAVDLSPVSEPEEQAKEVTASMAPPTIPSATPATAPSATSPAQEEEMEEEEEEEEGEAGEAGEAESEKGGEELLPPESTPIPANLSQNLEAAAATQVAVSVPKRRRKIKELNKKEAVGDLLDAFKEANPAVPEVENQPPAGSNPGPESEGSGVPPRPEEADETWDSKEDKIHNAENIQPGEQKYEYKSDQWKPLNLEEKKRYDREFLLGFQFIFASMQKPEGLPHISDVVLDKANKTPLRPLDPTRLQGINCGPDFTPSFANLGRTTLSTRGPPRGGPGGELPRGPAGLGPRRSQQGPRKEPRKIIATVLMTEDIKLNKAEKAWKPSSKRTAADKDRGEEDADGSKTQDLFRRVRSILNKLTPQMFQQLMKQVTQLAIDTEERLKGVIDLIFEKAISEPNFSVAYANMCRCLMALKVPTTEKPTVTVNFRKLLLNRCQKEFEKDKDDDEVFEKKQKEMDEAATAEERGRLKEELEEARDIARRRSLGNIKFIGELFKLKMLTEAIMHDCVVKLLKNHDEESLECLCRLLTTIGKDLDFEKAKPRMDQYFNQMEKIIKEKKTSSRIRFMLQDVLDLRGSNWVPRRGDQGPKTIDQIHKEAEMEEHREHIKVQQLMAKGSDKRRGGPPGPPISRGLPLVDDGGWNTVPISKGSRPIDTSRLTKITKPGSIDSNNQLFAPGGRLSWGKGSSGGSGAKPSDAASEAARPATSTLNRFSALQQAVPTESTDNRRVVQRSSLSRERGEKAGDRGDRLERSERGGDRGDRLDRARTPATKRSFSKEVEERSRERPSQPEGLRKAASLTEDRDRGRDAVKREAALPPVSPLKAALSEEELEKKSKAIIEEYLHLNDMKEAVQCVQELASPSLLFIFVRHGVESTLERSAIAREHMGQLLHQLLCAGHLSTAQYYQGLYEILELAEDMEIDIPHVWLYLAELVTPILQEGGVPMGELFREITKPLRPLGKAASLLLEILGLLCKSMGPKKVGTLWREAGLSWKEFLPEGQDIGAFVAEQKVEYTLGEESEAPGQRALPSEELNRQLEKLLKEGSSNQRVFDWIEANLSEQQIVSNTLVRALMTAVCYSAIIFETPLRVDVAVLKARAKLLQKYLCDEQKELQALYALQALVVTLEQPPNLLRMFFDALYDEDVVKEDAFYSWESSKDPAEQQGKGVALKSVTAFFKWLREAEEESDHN
T2 sequence (P06730 whole entry partner): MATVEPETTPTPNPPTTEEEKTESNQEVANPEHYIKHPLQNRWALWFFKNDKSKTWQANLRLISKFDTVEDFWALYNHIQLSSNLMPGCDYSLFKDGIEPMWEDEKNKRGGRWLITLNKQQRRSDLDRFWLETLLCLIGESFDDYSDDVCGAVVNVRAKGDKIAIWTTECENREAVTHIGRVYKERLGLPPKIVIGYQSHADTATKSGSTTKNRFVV
T1 sequence (Q04637 whole entry, one chain of several): as the sequence (Q04637 whole entry) above

SMILES | upstream to downstream AUG ratio (leaky scanning) [1] | reduction of co-precipitated eIF4G1 with HA-eIF1 (eIF1-eIF4G1 complex) [%] | level of co-precipitated eIF4G1 with HA-eIF4E (eIF4E-eIF4G1 complex)
Cc1ccc(/C(=C\C=C(C#N)C#N)Sc2nc3ccccc3s2)cc1 [i14G1-11] | selectively changed the upstream to downstream ratio by inhibiting leaky scanning from the cap-proximal AUG |  | 
C/C=C(/C)C(=O)O[C@H]1C(C)=C2[C@H]([C@@H]1OC(=O)CCCCCCC)[C@@](C)(OC(C)=O)C[C@H](OC(=O)CCC)[C@@]1(O)[C@H]2OC(=O)[C@@]1(C)O [Thapsigargin, reference compound] |  | 50 | no significant change
